# Data reported in publication PMC5360270 (Journal of medicinal chemistry, 2016).
# Assays:
# Format in all cases: cell-based
# [1] = system: HIV-1DRV^RP20; assay: Antiviral p24 assay in MT-4 cells, multi-drug resistant variant HIV-1DRVRP20; settings: 50 TCID50 HIV-1DRV^RP20 (multi-drug resistant)
# [2] = system: HIV-1C; assay: Antiviral p24 assay in MT-4 cells, multi-drug resistant variant HIV-1C; settings: 50 TCID50 HIV-1C (multi-drug resistant)
# [3] = system: HIV-1B; assay: Antiviral p24 assay in MT-4 cells, multi-drug resistant variant HIV-1B; settings: 50 TCID50 HIV-1B (multi-drug resistant)
# [4] = system: HIV-1NL4-3; assay: Antiviral p24 assay in MT-4 cells, wild-type HIV-1NL4-3; settings: 50 TCID50 wild-type HIV-1NL4-3, p24 assay
# [5] = system: HIV-1LAI; assay: Antiviral assay in MT-2 cells exposed to HIV-1LAI, MTT assay; settings: Human immunodeficiency virus 1, MT2
SMILES,Mean IC50 ± SD [1],Mean IC50 ± SD [2],Mean IC50 ± SD [3],Mean IC50 ± SD [4],IC50 [5] [nM]
"COc1ccc(S(=O)(=O)N(CC(C)C)C[C@@H](O)[C@H](CC23CC4CC(CC(C4)C2)C3)NC(=O)O[C@H]2CCOC2)cc1 [15a, (S)-Tetrahydrofuran-3-yl ((2S,3R)-1-((1s,3R)-adamantan-1-yl)-3-hydroxy-4-((N-isobutyl-4-methoxyphenyl)sulfonamido)butan-2-yl)carbamate]",did not exhibit appreciable antiviral activity,did not exhibit appreciable antiviral activity,did not exhibit appreciable antiviral activity,–,–
"COc1ccc(S(=O)(=O)N(CC(C)C)C[C@@H](O)[C@H](CC23CC4CC(CC(C4)C2)C3)NC(=O)O[C@H]2CO[C@H]3OCC[C@H]32)cc1 [15d, (3R,3aS,6aR)-Hexahydrofuro[2,3-b]furan-3-yl ((2S,3R)-1-((1s,3R)-adamantan-1-yl)-3-hydroxy-4-((N-isobutyl-4-methoxyphenyl)sulfonamido)butan-2-yl)carbamate]",did not show any appreciable antiviral activity,–,did not show any appreciable antiviral activity,low nanomolar,–
"CC(C)CN(C[C@@H](O)[C@H](Cc1ccccc1)NC(=O)O[C@H]1CO[C@H]2OCC[C@H]21)S(=O)(=O)c1ccc(N)cc1 [Darunavir, darunavir]",–,–,–,–,3
